Data from patent US7250258B2 (priority 2003, dated 2007).

How the values were obtained:
[1] = system: Caucasian patients diagnosed with Alzheimer's Disease; test: Clinical association of CDK5 haplotype copy number with galantamine response (ΔADAS-cog responder vs non-responder, logistic regression); type: in vivo, human
Protocol: Following 3, 5, 6 or 12 months of treatment in the GAL-INT2, GAL-USA 10, GAL-INT-1 and SAB-USA-25 trials, respectively, the severity of symptoms in patients were evaluated using the cognitive subscale of the Alzheimer's Disease Assessment Scale (ADAS-cog) (Rosen et al., supra; Rockwood et al., supra; Tariot et al., supra; Wilcock et al., supra). The ADAS-cog measures cognitive function, including spoken language ability, comprehension of spoken language, recall of test instructions, word-finding difficulty in spontaneous speech, following commands, naming objects and fingers, constructional praxis, ideational praxis, orientation, word-recall task and word-recognition task (Alzheimer's Insights Online, supra).
For the clinical association study described in Example 2 below, 174 patients were selected and used to populate two groups in a tailed sampling strategy, intended to enrich alleles correlating with drug response in the population. […] Patients were assigned to responder and non-responder groups based on having a change in ADAS-cog score (ΔADAS-cog) that met a cut-off value that was chosen based on the differences in treatment times in the four clinical trials described above. The ΔADAS-cog cut-off values and treatment times used for each responder and non-responder group from each of the four clinical trials are shown in Table 6 below.
The statistical analyses compared ΔADAS-cog in patients with one copy vs. zero copies, two copies vs. zero copies, and two copies vs. one copy (within a patient's genome) of a particular allele, using a logistic regression analysis on two-degrees of freedom to associate clinical response with a particular haplotype. The following covariates were also included: age, gender, history, smoking, ADAS-cog baseline, dose (BID), body mass index, and CYP2D6. The logistic regression included assessment of associations between the haplotypes and the binary outcome of clinical response.
For the results obtained on the analyses, adjustments were made for multiple comparisons, using a permutation test (MULTIVARIATE PERMUTATION TESTS: WITH APPLICATIONS IN BIOSTATISTICS, Pesarin, John Wiley and Sons, New York, 2001). In this test, a sub-haplotype's data for each observation were kept constant, while all the remaining variables (outcome and covariates) were randomly permuted so that covariates always stayed with the same outcome. The permutation model was fitted for each of the several haplotypes, and the lowest p-value was kept. In total, 1000 permutations were done.

AD patients [2] = details: galantamine therapy; cited from earlier work
AD patients [3] = details: presence of the ApoE4 allele; cited from earlier work

SMILES	Subject Count for Haplotype with Highest Level Response ([1]; haplotype (1), 0 copies, of 41 subjects)	Subject Count for Haplotype with Highest Level Response ([1]; haplotype (1), 1 copy, of 88 subjects)	Subject Count for Haplotype with Highest Level Response ([1]; haplotype (1), 2 copies, of 45 subjects)	Subject Count for Haplotype with Highest Level Response ([1]; haplotype (2), 0 copies, of 41 subjects)	Subject Count for Haplotype with Highest Level Response ([1]; haplotype (2), 1 copy, of 88 subjects)	Subject Count for Haplotype with Highest Level Response ([1]; haplotype (2), 2 copies, of 45 subjects)	most common side effects (AD patients [2])	response to treatment in presence of ApoE4 polymorphism (AD patients [3])
COc1ccc2c3c1O[C@H]1C[C@@H](O)C=C[C@@]31CCN(C)C2 [galantamine]	26 (0)	46 (1)	13 (2)	26 (0)	46 (1)	13 (2)	nausea, vomiting, diarrhea, dizziness and anorexia	
Nc1c2c(nc3ccccc13)CCCC2 [tacrine]								reduced response to treatment
